Test results taken from US12172983B2, “EGFR inhibitors” (Blueprint Medicines Corporation, priority 2019, dated 2024).
Like-named read-outs stand apart in the source and are kept apart here.

Key:
EGFR (L858R T790M C797S) = biological target: T1, EGFR (L858R T790M C797S) (Homo sapiens, UniProt P00533, C797S/L858R/T790M); assay: Biochemical EGFR inhibition assay (Caliper mobility shift), EGFR LRTMCS mutant; conditions: inhibitory activity against EGFR LRTMCS mutant; apparent IC50; read-out: Ext Enz LRTMCS
T1 construct: purchased SignalChem E10-122VG
How it was run: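 Each enzyme was allowed to phosphorylate 10–20% of its peptide at 25° C. before EDTA (35 mM) quench. Separated substrate and product peaks were measured by mobility shift, giving apparent IC50 values.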

[1] = system: phosphorylation of EGFR (Tyr1068) in NCI-H1975 cell line that harbors the EGFR L858R T790M mutations; assay: NCI-H1975 pEGFR AlphaLISA assay; type: cell-based; conditions: 4-5 hours incubation, read-out: Ext pEGFR H1975
How it was run: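 NCI-H1975 cells (EGFR L858R/T790M) seeded overnight, then treated with compound for 4-5 h at 37 °C/5% CO2. After lysis, p-EGFR (Tyr1068) quantified by AlphaLISA SureFire Ultra with acceptor then donor beads; IC50 fitted from percent inhibition versus log concentration.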

[2] = Homo sapiens, NCI-H1975, inhibition of phosphorylation of mutant EGFR in NCI-H1975 cells
[3] = inhibition of phosphorylation of mutant EGFR in NCI-H1975 cells

T1 sequence (P00533 25-1210 T790M/C797S/L858R): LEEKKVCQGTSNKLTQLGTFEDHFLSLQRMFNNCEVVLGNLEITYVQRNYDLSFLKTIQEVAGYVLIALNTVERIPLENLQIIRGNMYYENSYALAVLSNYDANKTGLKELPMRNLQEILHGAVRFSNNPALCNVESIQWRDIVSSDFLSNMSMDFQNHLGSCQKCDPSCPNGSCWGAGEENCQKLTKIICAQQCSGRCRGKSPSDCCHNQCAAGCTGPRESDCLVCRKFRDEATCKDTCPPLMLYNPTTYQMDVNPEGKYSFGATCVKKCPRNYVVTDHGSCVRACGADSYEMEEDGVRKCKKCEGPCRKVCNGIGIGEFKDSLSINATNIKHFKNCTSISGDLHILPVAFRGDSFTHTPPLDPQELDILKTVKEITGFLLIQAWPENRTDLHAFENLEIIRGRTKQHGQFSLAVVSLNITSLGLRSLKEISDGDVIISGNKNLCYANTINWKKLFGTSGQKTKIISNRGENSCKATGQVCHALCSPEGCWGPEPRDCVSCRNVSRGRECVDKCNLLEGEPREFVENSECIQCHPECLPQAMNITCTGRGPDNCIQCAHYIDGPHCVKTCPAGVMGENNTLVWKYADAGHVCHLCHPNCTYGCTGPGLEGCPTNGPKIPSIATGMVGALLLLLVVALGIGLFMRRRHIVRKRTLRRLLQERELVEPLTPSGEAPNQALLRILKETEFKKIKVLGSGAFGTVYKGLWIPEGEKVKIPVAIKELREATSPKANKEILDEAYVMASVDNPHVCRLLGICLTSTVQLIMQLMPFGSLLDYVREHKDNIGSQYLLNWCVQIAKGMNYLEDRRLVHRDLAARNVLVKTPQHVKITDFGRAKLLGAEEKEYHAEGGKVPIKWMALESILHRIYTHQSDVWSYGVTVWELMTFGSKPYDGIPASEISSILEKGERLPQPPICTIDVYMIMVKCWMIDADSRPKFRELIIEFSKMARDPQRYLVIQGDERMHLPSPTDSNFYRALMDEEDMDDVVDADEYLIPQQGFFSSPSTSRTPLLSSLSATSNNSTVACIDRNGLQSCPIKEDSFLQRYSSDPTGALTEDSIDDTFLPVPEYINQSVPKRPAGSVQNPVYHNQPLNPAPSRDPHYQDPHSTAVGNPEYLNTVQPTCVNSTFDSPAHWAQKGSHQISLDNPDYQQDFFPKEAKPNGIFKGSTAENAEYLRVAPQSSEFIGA

Row | IC50 (EGFR (L858R T790M C797S)) [nM] | IC50 [1, 2] [nM] | IC50 [1, 3] [nM] | SMILES
1 | ≤ 15 | 10.1 to 20 | – | CC(C)c1ncc(N2C[C@H](CS(C)(=O)=O)[C@H]2C)c2cnc(Nc3ccnc(N4CC[C@](C)(O)[C@H](F)C4)n3)cc12 (single isomer, unassigned) [Compound 136]
2 | ≤ 15 | 20.1 to 30 | – | COc1ccc(N2CC(CS(C)(=O)=O)C2)c2cnc(Nc3ccnc(N4CC[C@@H](O)[C@@](C)(F)C4)n3)cc12 (single isomer, unassigned) [Compound 32]
3 | ≤ 15 | – | ≤ 10 | CNCCO[C@@H]1CCN(c2nccc(Nc3cc4c(C(C)C)ccc(N5C[C@H](CS(C)(=O)=O)[C@H]5C)c4cn3)n2)CC1(F)F (single isomer, unassigned) [Compound 301, N-{2-[(4S)-3,3-difluoro-4-[2-(methylamino)ethoxy]piperidin-1-yl]pyrimidin-4-yl}-8-[(2R,3S)-3-(methanesulfonylmethyl)-2-methylazetidin-1-yl]-5-(propan-2-yl)isoquinolin-3-amine or N-{2-[(4R)-3,3-difluoro-4-[2-(methylamino)ethoxy]piperidin-1-yl]pyrimidin-4-yl}-8-[(2R,3S)-3-(methanesulfonylmethyl)-2-methylazetidin-1-yl]-5-(propan-2-yl)isoquinolin-3-amine]
4 | 20.1 to 30 | ≤ 10 | – | CCS(=O)(=O)CC1CN(c2ccc(C(C)C)c3cc(Nc4ccnc(N5C[C@@H](O)[C@@H](OC)C(F)(F)C5)n4)ncc23)C1 (single isomer, unassigned) [Compound 294, (3R,4R)-1-{4-[(8-{3-[(ethanesulfonyl)methyl]azetidin-1-yl}-5-(propan-2-yl)isoquinolin-3-yl)amino]pyrimidin-2-yl}-5,5-difluoro-4-methoxypiperidin-3-ol or (3S,4S)-1-{4-[(8-{3-[(ethanesulfonyl)methyl]azetidin-1-yl}-5-(propan-2-yl)isoquinolin-3-yl)amino]pyrimidin-2-yl}-5,5-difluoro-4-methoxypiperidin-3-ol]
5 | 15.1 to 20 | 10.1 to 20 | – | CC(C)c1ncc(N2C[C@H](CS(C)(=O)=O)[C@H]2C)c2cnc(Nc3ccnc(N4CC[C@H](OCC(C)(C)O)[C@H](F)C4)n3)cc12 [Compound 257, 1-{[(3R,4S)-3-fluoro-1-[4-({8-[(2R,3S)-3-(methanesulfonylmethyl)-2-methylazetidin-1-yl]-5-(propan-2-yl)-2,6-naphthyridin-3-yl}amino)pyrimidin-2-yl]piperidin-4-yl]oxy}-2-methylpropan-2-ol]
6 | ≤ 15 | ≤ 10 | – | CC(C)c1cc(F)c(N2CC(CS(C)(=O)=O)C2)c2cnc(Nc3ccnc(N4CC[C@@H](O)[C@@](C)(F)C4)n3)cc12 (single isomer, unassigned) [Compound 157]
7 | ≤ 15 | ≤ 10 | – | CC(C)c1ccc(N2CC(CS(C)(=O)=O)C2)c2cnc(Nc3ccnc(N4CC[C@@H](F)[C@@H](O)C4)n3)cc12 (single isomer, unassigned) [Compound 26, (3R,4S)-4-fluoro-1-[4-({8-[3-(methanesulfonylmethyl)azetidin-1-yl]-5-(propan-2-yl)isoquinolin-3-yl}amino)pyrimidin-2-yl]piperidin-3-ol or (3S,4R)-4-fluoro-1-[4-({8-[3-(methanesulfonylmethyl)azetidin-1-yl]-5-(propan-2-yl)isoquinolin-3-yl}amino)pyrimidin-2-yl]piperidin-3-ol]
8 | ≤ 15 | ≤ 10 | – | C[C@@H]1[C@@H](CS(C)(=O)=O)CN1c1ccc(F)c2cc(Nc3ccnc(N4CC[C@@H](O)[C@@](C)(F)C4)n3)ncc12 (single isomer, unassigned) [Compound 33]
9 | ≤ 15 | ≤ 10 | – | CC(C)c1ccc(N2C[C@H](CS(C)(=O)=O)[C@H]2C)c2cnc(Nc3ccnc(N4CC[C@@H](OCCN(C)C)C(F)(F)C4)n3)cc12 (single isomer, unassigned) [Compound 304, N-{2-[(4R)-4-[2-(dimethylamino)ethoxy]-3,3-difluoropiperidin-1-yl]pyrimidin-4-yl}-8-[(2R,3S)-3-(methanesulfonylmethyl)-2-methylazetidin-1-yl]-5-(propan-2-yl)isoquinolin-3-amine or N-{2-[(4S)-4-[2-(dimethylamino)ethoxy]-3,3-difluoropiperidin-1-yl]pyrimidin-4-yl}-8-[(2R,3S)-3-(methanesulfonylmethyl)-2-methylazetidin-1-yl]-5-(propan-2-yl)isoquinolin-3-amine]
10 | ≤ 15 | ≤ 10 | – | CC(C)c1cnc(N2C[C@H](CS(C)(=O)=O)[C@H]2C)c2cnc(Nc3ccnc(N4CC[C@@H](OCC(C)(C)O)[C@@H](F)C4)n3)cc12 [Compound 260, 1-{[(3S,4R)-3-fluoro-1-[4-({8-[(2R,3S)-3-(methanesulfonylmethyl)-2-methylazetidin-1-yl]-5-(propan-2-yl)-2,7-naphthyridin-3-yl}amino)pyrimidin-2-yl]piperidin-4-yl]oxy}-2-methylpropan-2-ol]
11 | ≤ 15 | ≤ 10 | – | CCS(=O)(=O)CC1CN(c2ccc(C(C)C)c3cc(Nc4ccnc(N5CC[C@H](OC)[C@H](F)C5)n4)ncc23)C1 [Compound 262, 8-{3-[(ethanesulfonyl)methyl]azetidin-1-yl}-N-{2-[(3R,4S)-3-fluoro-4-methoxypiperidin-1-yl]pyrimidin-4-yl}-5-(propan-2-yl)isoquinolin-3-amine]
12 | 15.1 to 20 | – | 30.1 to 50 | CC(C)c1ccc(N2CC(CS(C)(=O)=O)C2)c2cnc(Nc3ccnc(N4CC[C@H](O)[C@H](C)C4)n3)cc12 (single isomer, unassigned) [Compound 20, (3R,4S)-1-[4-({8-[3-(methanesulfonylmethyl)azetidin-1-yl]-5-(propan-2-yl)isoquinolin-3-yl}amino)pyrimidin-2-yl]-3-methylpiperidin-4-ol or (3S,4R)-1-[4-({8-[3-(methanesulfonylmethyl)azetidin-1-yl]-5-(propan-2-yl)isoquinolin-3-yl}amino)pyrimidin-2-yl]-3-methylpiperidin-4-ol]
13 | ≤ 15 | 10.1 to 20 | – | COc1ccc(N2CC(CS(C)(=O)=O)C2)c2cnc(Nc3ccnc(N4C[C@@H](F)[C@@H](O)C(C)(C)C4)n3)cc12 (single isomer, unassigned) [Compound 79, (4S,5R)-5-fluoro-1-[4-({8-[3-(methanesulfonylmethyl)azetidin-1-yl]-5-methoxyisoquinolin-3-yl}amino)pyrimidin-2-yl]-3,3-dimethylpiperidin-4-ol or (4R,5S)-5-fluoro-1-[4-({8-[3-(methanesulfonylmethyl)azetidin-1-yl]-5-methoxyisoquinolin-3-yl}amino)pyrimidin-2-yl]-3,3-dimethylpiperidin-4-ol]
14 | 20.1 to 30 | – | 10.1 to 20 | [2H]C([2H])([2H])O[C@H]1CCN(c2nccc(Nc3cc4c(C(C)C)ccc(N5CC(CS(C)(=O)=O)C5)c4cn3)n2)CC1(F)F (single isomer, unassigned) [Compound 287, N-{2-[(4R)-3,3-difluoro-4-(^2H3)methoxypiperidin-1-yl]pyrimidin-4-yl}-8-[3-(methanesulfonylmethyl)azetidin-1-yl]-5-(propan-2-yl)isoquinolin-3-amine or N-{2-[(4S)-3,3-difluoro-4-(^2H3)methoxypiperidin-1-yl]pyrimidin-4-yl}-8-[3-(methanesulfonylmethyl)azetidin-1-yl]-5-(propan-2-yl)isoquinolin-3-amine]
15 | ≤ 15 | ≤ 10 | – | CO[C@H]1CCN(c2nccc(Nc3cc4c(C(C)C)ccc(N5C[C@H](CS(C)(=O)=O)[C@H]5C)c4cn3)n2)C[C@@H]1N (single isomer, unassigned) [Compound 89]
16 | ≤ 15 | 20.1 to 30 | – | CC(CF)c1ccc(N2CC(CS(C)(=O)=O)C2)c2cnc(Nc3ccnc(N4CC[C@@H](O)[C@@](C)(F)C4)n3)cc12 (single isomer, unassigned) [Compound 154]
17 | ≤ 15 | ≤ 10 | – | CC(C)c1ccc(N2CC(CS(C)(=O)=O)C2)c2cnc(Nc3ccnc(N4CC[C@@H](OCCO)[C@@H](F)C4)n3)cc12 [Compound 205, 2-{[(3S,4R)-3-fluoro-1-[4-({8-[3-(methanesulfonylmethyl)azetidin-1-yl]-5-(propan-2-yl)isoquinolin-3-yl}amino)pyrimidin-2-yl]piperidin-4-yl]oxy}ethan-1-ol]
18 | ≤ 15 | ≤ 10 | – | CC(C)c1ccc(N2C[C@H](CS(C)(=O)=O)[C@H]2C)c2cnc(Nc3ccnc(N4CC[C@@H](OCCO)[C@@H](F)C4)n3)cc12 [Compound 229, 2-((3S,4R)-3-fluoro-1-(4-(5-isopropyl-8-((2R,3S)-2-methyl-3-(methylsulfonylmethyl)azetidin-1-yl)isoquinolin-3-ylamino)pyrimidin-2-yl)piperidin-4-yloxy)ethanol]
19 | 15.1 to 20 | – | 30.1 to 50 | CCS(=N)(=O)CC1CN(c2ccc(C(C)C)c3cc(Nc4ccnc(N5CCC(OC)C(F)C5)n4)ncc23)C1 (single isomer, unassigned) [Compound 275, (S)-ethyl({1-[3-({2-[(3R,4S)-3-fluoro-4-methoxypiperidin-1-yl]pyrimidin-4-yl}amino)-5-(propan-2-yl)isoquinolin-8-yl]azetidin-3-yl}methyl)imino-λ^6-sulfanone or (R)-ethyl({1-[3-({2-[(3R,4S)-3-fluoro-4-methoxypiperidin-1-yl]pyrimidin-4-yl}amino)-5-(propan-2-yl)isoquinolin-8-yl]azetidin-3-yl}methyl)imino-λ^6-sulfanone]
